Experimental data as given in PubChem BioAssay AID330 (DTP/NCI, 2004).
Values joined by “and” are separate entries in the source; they are usually repeats but may differ in a detail not shown here. Equal values may be shown once. Toxic doses and inconclusive results are not listed. Rule for the calls: active = survival T/C of 150% or more; inactive = T/C below 125% in these data.

Tested on: P388 leukemia ip, CD2F1 mice, survival T/C
Assay: NCI In Vivo Anticancer Drug Screen. Data for tumor model P388 Leukemia (intraperitoneal) in CD2F1 (CDF1) mice
Conditions: endpoint: median survival time, higher = longer survival
How it was run: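 Mice carrying the transplanted tumor received test compound or vehicle. Survival was recorded in each group, and the value is the treated-group measurement divided by that of the vehicle-treated control group.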

[1] = dose: 50.0 mg/kg/injection, schedule: Q01DX005 (ip), vehicle: Klucel (hydroxypropylcellulose) (HPC)
[2] = dose: 6.25 mg/kg/injection, schedule: Q01DX005 (ip), vehicle: Klucel (hydroxypropylcellulose) (HPC)
[3] = dose: 12.5 mg/kg/injection, schedule: Q01DX005 (ip), vehicle: Klucel (hydroxypropylcellulose) (HPC)
[4] = dose: 60.0 mg/kg/injection, schedule: Q01DX005 (ip), vehicle: saline with Tween-80
[5] = dose: 120.0 mg/kg/injection, schedule: Q01DX005 (ip), vehicle: saline with Tween-80
[6] = dose: 240.0 mg/kg/injection, schedule: Q01DX005 (ip), vehicle: saline with Tween-80
[7] = dose: 100.0 mg/kg/injection, schedule: Q01DX009 (ip), vehicle: Klucel (hydroxypropylcellulose) (HPC)
[8] = dose: 200.0 mg/kg/injection, schedule: Q01DX009 (ip), vehicle: Klucel (hydroxypropylcellulose) (HPC)

Measured: T/C

C/C(=N\NC(=S)Nc1ccc(S(=O)(=O)O)cc1)c1ccccn1
inactive: [1] 107 % of control | dose: 50.0 mg/kg/injection, schedule: Q01DX005 (ip), vehicle: suspension in saline 101 % of control | dose: 100.0 mg/kg/injection, schedule: Q01DX005 (ip), vehicle: Klucel (hydroxypropylcellulose) (HPC) 108 % of control | dose: 100.0 mg/kg/injection, schedule: Q01DX005 (ip), vehicle: suspension in saline 105 % of control | dose: 200.0 mg/kg/injection, schedule: Q01DX005 (ip), vehicle: Klucel (hydroxypropylcellulose) (HPC) 106 % of control | dose: 200.0 mg/kg/injection, schedule: Q01DX005 (ip), vehicle: suspension in saline 121 % of control | dose: 400.0 mg/kg/injection, schedule: Q01DX005 (ip), vehicle: Klucel (hydroxypropylcellulose) (HPC) 115 % of control

CCOC(=O)CCC(NC(=O)c1ccc(N(C)CCC(C)=O)cc1)C(=O)OCC (stereo unspecified)
inactive: dose: 50.0 mg/kg/injection, schedule: Q01DX009 (ip), vehicle: saline with Tween-80 111 % of control | dose: 100.0 mg/kg/injection, schedule: Q01DX009 (ip), vehicle: saline with Tween-80 111 % of control | dose: 200.0 mg/kg/injection, schedule: Q01DX009 (ip), vehicle: saline with Tween-80 102 % of control | dose: 400.0 mg/kg/injection, schedule: Q01DX009 (ip), vehicle: saline with Tween-80 97 % of control

CC1=CC(=O)[C@@H](O)[C@]2(C)[C@H]3[C@@]4(O)OC[C@]35[C@H]([C@@H](C)[C@H]4O)[C@@H](O)C(=O)O[C@@H]5C[C@@H]12
inactive: dose: 6.25 mg/kg/injection, schedule: Q01DX009 (ip), vehicle: saline 115 % of control | dose: 12.5 mg/kg/injection, schedule: Q01DX009 (ip), vehicle: saline 104 % of control | dose: 25.0 mg/kg/injection, schedule: Q01DX009 (ip), vehicle: saline 115 % of control

COC(=O)CCC#N
inactive: dose: 100.0 mg/kg/injection, schedule: Q01DX009 (ip), vehicle: saline 97 % of control | dose: 200.0 mg/kg/injection, schedule: Q01DX009 (ip), vehicle: saline 109 % of control | dose: 400.0 mg/kg/injection, schedule: Q01DX009 (ip), vehicle: saline 107 % of control

CCCCN(CCCC)CCCNc1c2c(nc3ccccc13)CCCC2
inactive: dose: 12.5 mg/kg/injection, schedule: Q01DX005 (ip), vehicle: saline 95 % of control | dose: 25.0 mg/kg/injection, schedule: Q01DX005 (ip), vehicle: saline 104 % of control | dose: 50.0 mg/kg/injection, schedule: Q01DX005 (ip), vehicle: saline 100 % of control

CC1=C2CC/C(C)=C/CCC3(C)OC3CC/C(C)=C/C2OC1=O (stereo unspecified)
inactive: dose: 1.25 mg/kg/injection, schedule: Q01DX009 (ip), vehicle: other 118 % of control | dose: 2.0 mg/kg/injection, schedule: Q01DX009 (ip), vehicle: Klucel (hydroxypropylcellulose) (HPC) 91 % of control | dose: 2.5 mg/kg/injection, schedule: Q01DX009 (ip), vehicle: other 105 % of control | dose: 4.0 mg/kg/injection, schedule: Q01DX009 (ip), vehicle: Klucel (hydroxypropylcellulose) (HPC) 89 % of control | dose: 5.0 mg/kg/injection, schedule: Q01DX009 (ip), vehicle: other 112 % of control | dose: 10.0 mg/kg/injection, schedule: Q01DX009 (ip), vehicle: saline with Tween-80 92 % of control | dose: 16.0 mg/kg/injection, schedule: Q01DX009 (ip), vehicle: Klucel (hydroxypropylcellulose) (HPC) 94 % of control | dose: 20.0 mg/kg/injection, schedule: Q01DX009 (ip), vehicle: saline with Tween-80 89 % of control | dose: 32.0 mg/kg/injection, schedule: Q01DX009 (ip), vehicle: Klucel (hydroxypropylcellulose) (HPC) 94 % of control | dose: 40.0 mg/kg/injection, schedule: Q01DX009 (ip), vehicle: saline with Tween-80 108 % of control

[CH3][Ge]([Cl])([c]1ccccc1)[c]1cccc2ccccc12 (stereo unspecified)
inactive: dose: 100.0 mg/kg/injection, schedule: Q04DX003 (ip), vehicle: saline 102 % of control | dose: 200.0 mg/kg/injection, schedule: Q04DX003 (ip), vehicle: saline 97 % of control | dose: 400.0 mg/kg/injection, schedule: Q04DX003 (ip), vehicle: saline 101 % of control

O=C1c2ccccc2C(=O)c2c1nc1sccn21
inactive: dose: 3.12 mg/kg/injection, schedule: Q01DX005 (ip), vehicle: Klucel (hydroxypropylcellulose) (HPC) 104 % of control | [2] 108 % of control | [3] 102 % of control and 104 % of control | [1] 105 % of control

COC(=O)c1nnn(-c2ccc(C)c(C)c2)c1C(=O)c1ccccc1
inactive: [4] 99 % of control | [5] 109 % of control

COc1ccc(/C=C/c2cc(OC)cc(=O)o2)cc1
inactive: dose: 12.5 mg/kg/injection, schedule: Q04DX003 (ip), vehicle: saline with Tween-80 100 % of control | dose: 25.0 mg/kg/injection, schedule: Q04DX003 (ip), vehicle: saline with Tween-80 99 % of control | dose: 50.0 mg/kg/injection, schedule: Q04DX003 (ip), vehicle: saline with Tween-80 100 % of control | dose: 100.0 mg/kg/injection, schedule: Q04DX003 (ip), vehicle: saline with Tween-80 100 % of control

CCOC(=O)c1ccc2c(=O)[nH]nc(CO)c2c1
inactive: dose: 50.0 mg/kg/injection, schedule: Q01DX005 (ip), vehicle: saline with Tween-80 104 % of control | dose: 100.0 mg/kg/injection, schedule: Q01DX005 (ip), vehicle: saline with Tween-80 102 % of control | dose: 200.0 mg/kg/injection, schedule: Q01DX005 (ip), vehicle: saline with Tween-80 96 % of control

C=C1C(=O)C23C(OC(=O)CCCCCCCCCCCCC)C1CCC2C12COC3(O)C(O)C1C(C)(C)CCC2O (stereo unspecified)
inactive: dose: 3.75 mg/kg/injection, schedule: Q01DX009 (ip), vehicle: saline with Tween-80 104 % of control | dose: 7.5 mg/kg/injection, schedule: Q01DX009 (ip), vehicle: saline with Tween-80 109 % of control | dose: 15.0 mg/kg/injection, schedule: Q01DX009 (ip), vehicle: saline with Tween-80 112 % of control

CN(C)C(=O)Cn1cc([N+](=O)[O-])sc1=NC(=O)c1ccncc1
inactive: dose: 100.0 mg/kg/injection, schedule: Q01DX001 (ip), vehicle: saline 93 % of control | dose: 200.0 mg/kg/injection, schedule: Q01DX001 (ip), vehicle: saline 109 % of control | dose: 400.0 mg/kg/injection, schedule: Q01DX001 (ip), vehicle: saline 105 % of control

CC(=O)N1c2ccccc2C(O)C1OC(=O)c1cccc(Cl)c1 (stereo unspecified)
inactive: [4] 100 % of control | [5] 103 % of control | [6] 89 % of control

[O-][n+]1nccnc1N1CCCCC1
inactive: dose: 100.0 mg/kg/injection, schedule: Q04DX002 (ip), vehicle: saline 90 % of control | dose: 200.0 mg/kg/injection, schedule: Q04DX002 (ip), vehicle: saline 98 % of control | dose: 400.0 mg/kg/injection, schedule: Q04DX002 (ip), vehicle: saline 100 % of control

O=C1c2ccccc2C(=O)N1CCNCCN1C(=O)c2ccccc2C1=O
inactive: [4] 103 % of control | [5] 93 % of control | [6] 93 % of control

NC(CSCCSCC(N)C(=O)O)C(=O)O (stereo unspecified)
inactive: dose: 50.0 mg/kg/injection, schedule: Q01DX009 (ip), vehicle: Klucel (hydroxypropylcellulose) (HPC) 110 % of control | [7] 98 % of control | [8] 104 % of control

C=CCC1=C(C2CO2)C(=O)c2ccccc2C1=O (stereo unspecified)
inactive: [2] 99 % of control | [3] 99 % of control

Cc1cc2nc3c(=O)[nH]c(=O)nc-3n(CCOC(=O)CCC(=O)O)c2cc1C
inactive: dose: 100.0 mg/kg/injection, schedule: Q04DX003 (ip), vehicle: saline sonified 104 % of control | dose: 200.0 mg/kg/injection, schedule: Q04DX003 (ip), vehicle: saline sonified 114 % of control

O=[N+]([O-])c1cc(Cl)ccc1-c1ccccc1
inactive: [7] 87 % of control | [8] 93 % of control | dose: 400.0 mg/kg/injection, schedule: Q01DX009 (ip), vehicle: Klucel (hydroxypropylcellulose) (HPC) 101 % of control
